From patent US20090239901A1, “METHOD AND COMPOSITIONS FOR TREATMENT OF CEREBRAL MALARIA” (priority 2008, published 2009)

Experiments:
Janus kinase 2 (Jak2) = assay: attenuation of Compound A effects by Jak2 inhibitor; settings: both in vitro and in vivo
Description: (§1) All of these events were reported to be important in the development of Cerebral Malaria (CM).

VCAM-1 = assay: TNFα-induced production of VCAM-1 in human brain microvascular endothelial cells; assay type: cell-based; settings: TNF-treated human brain microvascular endothelial cells (MVECs)
Description: as §1

hippocampal neurogenesis = hippocampal neurogenesis in vivo; settings: 1 week treatment, 2H2O label
microglia = assay: LPS-induced microglial inflammation in vivo; settings: LPS 1 mg/kg i.p. on days 1, 3 and 5
Method: Animals were treated with either vehicle and 8% 2H2O label for 1 week. LPS (1 mg/kg, i.p) was injected on days 1, 3 and 5 of drug treatment and label. Microglia were isolated from brain and sorted by flow cytometry as CD11b+, F4/80+ cells. DNA was isolated from sorted microglia cells, hydrolyzed and derivatized for GC/MS analyses.

ICAM-1 = assay: TNFα-induced production of ICAM-1 in human brain microvascular endothelial cells; assay type: cell-based; settings: TNF-treated human brain microvascular endothelial cells (MVECs)
Description: as §1

TNF = TNF expression
Description: as §1

[1] = tested on: more than 60 receptors and enzymes
sepsis-induced death = sepsis-induced death in rodents (survival study); assay type: in vivo
Method: FIG. 5 is a graph showing results of a study that indicates α7 agonists can prevent sepsis-induced death in rodents. Survival was monitored daily from day 0 to day 6. In the vehicle control group there was a 13% survival by day 6. In the animals treated with 0.003 mg/kg Compound B, there was a 13% survival by day (NS, p=0.360). In the animals treated with 0.03 mg/kg Compound B, there was also a 13% survival by day (NS, p=0.528). […] Survival was 47% in this group, a significant improvement in survival (p=0.005).

N#C/C(=C/c1ccc(O)c(O)c1)C(=O)NCc1ccccc1 [AG-490]
effect on the effects of Compound A (Janus kinase 2 (Jak2)): attenuates the effects of Compound A

Cc1ccc(C(=O)N[C@@H]2C3CCN(CC3)[C@H]2Cc2cccnc2)s1 [Compound A, (2S,3R)-N-(2-((3-pyridinyl)methyl)-1-azabicyclo[2.2.2]oct-3-yl)-5-methylthiophene-2-carboxamide]
levels of VCAM-1 expression (VCAM-1): decreases the levels of ICAM-1 and VCAM-1 expression
hippocampal neurogenesis (hippocampal neurogenesis): promotes hippocampal neurogenesis in vivo
microglial inflammation (microglia): prevents microglial inflammation in vivo
levels of ICAM-1 expression (ICAM-1): decreases the levels of ICAM-1 and VCAM-1 expression
TNF expression (TNF): significantly inhibits TNF expression
separation with other targets [1]: 100-1000

O=C(N[C@@H]1C2CCN(CC2)[C@H]1Cc1cccnc1)c1cc2ccccc2o1 [Compound B, (2S,3R)-N-(2-((3-pyridinyl)methyl)-1-azabicyclo[2.2.2]oct-3-yl)benzofuran-2-carboxamide]
survival by day 6 (sepsis-induced death; 0.003 mg/kg, NS, p=0.360, vehicle control 13%): 13%
survival by day 6 (sepsis-induced death; 0.03 mg/kg, NS, p=0.528, vehicle control 13%): 13%
survival by day 6 (sepsis-induced death; 0.3 mg/kg, p=0.005, vehicle control 13%): 47%
